Values of other authors in US20110159080A1, “COMPOSITION COMPRISING LIPOSOME-ENTRAPPED DOXORUBICIN AND METHODS OF ADMINISTRATION” (priority 2008, published 2011).

Assays:
[1] = system: persistent or recurrent epithelial ovarian cancer
[2] = system: platinum resistant advanced ovarian carcinoma; conditions: human, in vivo
[3] = system: primary or secondary platinum-resistant ovarian cancer; conditions: bevacizumab 15 mg/kg every 21 days
[4] = system: xenotransplant models of colon cancer; conditions: nude (athymic) mice
[5] = system: recurrent stage III or IV ovarian cancer

In the case of `CC[C@@]1(O)C(=O)OCc2c1cc1n(c2=O)Cc2cc3c(CN(C)C)c(O)ccc3nc2-1` [topotecan], the toxicity profile (recurrent ovarian cancer; DOXIL 50 mg/m^2 every 4 weeks, topotecan 1.5 mg/m^2/day for 5 days every 3 weeks) is listed as “significant myelosuppression and alopecia”, the “median OS” value (recurrent ovarian cancer; subset with platinum-sensitive disease, p=0.008) is listed as 71.1 weeks and the “median PFS” value (recurrent ovarian cancer; subset with platinum-sensitive disease, p=0.037) is listed as 23.3 weeks.
For “bevacizumab: recombinant humanized monoclonal IgG1 antibody that binds to and inhibits human vascular endothelial growth factor (VEGF)”, the “complete responses (number of subjects)” value ([1]; 62 eligible subjects) is listed as “two”, the “subjects surviving progression free for at least 6 months” value ([1]; 62 eligible subjects) is listed as 40.3% and the “subjects with clinical response” value ([1]; bevacizumab 15 mg/kg IV every 21 days, 62 eligible subjects) is listed as 21.0%. The “Grade 3 adverse events: GI (number)” value ([1]; in vivo) was 3, the “Grade 3 adverse events: coagulation (number)” value ([1]; in vivo) was 1 and the “Grade 3 adverse events: constitutional (number)” value ([1]; in vivo) was 1. For the same compound, the “Grade 3 adverse events: dyspnea (number)” value ([1]; in vivo) was 1, the “Grade 3 adverse events: hematologic (number)” value ([1]; in vivo) was 1 and the “Grade 3 adverse events: hepatic (number)” value ([1]; in vivo) was 1. The “Grade 3 adverse events: hypertension (number)” value ([1]; in vivo) was 6, the “Grade 3 adverse events: pain (number)” value ([1]; in vivo) was 3 and the “Grade 3 adverse events: thromboembolism (number)” value ([1]; in vivo) was 1. The “Grade 4 adverse events: proteinuria (number)” value ([1]; in vivo) was 1, the “Grade 4 adverse events: pulmonary embolus (number)” value ([1]; in vivo) was 1 and the “Grade 4 adverse events: vomiting and constipation (number)” value ([1]; in vivo) was 1. For the same compound, the “median PFS” value ([1]; in vivo) was 4.7 months, the median overall survival ([1]; in vivo) was 17 months and the median response duration ([1]; in vivo) was 10 months. The cases of perforation [2] was “no cases of perforation”, the “6-month PFS rate” value [3] was 27% and the response rate [3] was 16%. The “effect on metastatic disease progression” value [4] was “inhibition of metastatic disease progression” and the “effect on microvascular growth” value [4] was “reduction in microvascular growth”.
For `N.N.O=C([O-])C1(C(=O)[O-])CCC1.[Pt+2]` [carboplatin], the response rate ([5]; DOXIL 30 mg/m^2 plus carboplatin AUC 5 or carboplatin alone AUC 5, every 4 weeks, p=0.02) is listed as 32%, the “estimated median PFS” value ([5]; every 4 weeks) is listed as 8 months and the “estimated median overall survival” value ([5]; every 4 weeks, p=0.02) is listed as 18 months.
